Laboratory results: patent US8242124B2, “Diketopiperidine derivatives as HIV attachment inhibitors” (priority 2008, dated 2012)

These compounds were tested on HIV-1 single-round infectious reporter virus (assay: Single-round infectious HIV-1 reporter virus (luciferase) infection assay in HeLa CD4 cells). Settings: Human immunodeficiency virus 1, HeLa, 72 h, read-out: HIV_SC10PT (EC50, nM).
Experimental: 2. Compound was added in a 2 μl dimethylsulfoxide solution, so that the final assay concentration would be ≦10 μM.
3. 100 μl of single-round infectious reporter virus in Dulbecco's Modified Eagle Medium was then added to the plated cells and compound at an approximate multiplicity of infection (MOI) of 0.01, resulting in a final volume of 200 μl per well.
4. Virally-infected cells were incubated at 37 degrees Celsius, in a CO2 incubator, and harvested 72 h after infection.
5. Viral infection was monitored by measuring luciferase expression from viral DNA in the infected cells using a luciferase reporter gene assay kit, as described by the manufacturer (Roche Molecular Biochemicals, Indianapolis, Ind.). Infected cell supernatants were removed and 50 μl of lysis buffer was added per well. After 15 minutes, 50 μl of freshly-reconstituted luciferase assay reagent was added per well. Luciferase activity was then quantified by measuring luminescence using a Wallac MICROBETA® scintillation counter.
7. An EC50 provides a method for comparing the antiviral potency of the compounds of this disclosure. The effective concentration for fifty percent inhibition (EC50) was calculated with the Microsoft Excel Xlfit curve fitting software.

Structure (SMILES)	EC50 [nM]
COc1cnc(Cl)c2[nH]cc(C(=O)C(=O)N3CCc4c(cccc4-c4ccccn4)C3)c12 [Compound 30, 1-(7-chloro-4-methoxy-1H-pyrrolo[2,3-c]pyridin-3-yl)-2-(5-(pyridin-2-yl)-3,4-dihydroisoquinolin-2(1H)-yl)ethane-1,2-dione]	171
COc1cnc(-c2cc(C(=O)NCCO)[nH]n2)c2[nH]cc(C(=O)C(=O)N3CCc4c(cccc4-c4ccccn4)C3)c12 [Compound 9, N-(2-hydroxyethyl)-3-(4-methoxy-3-(2-oxo-2-(5-(pyridin-2-yl)-3,4-dihydroisoquinolin-2(1H)-yl)acetyl)-1H-pyrrolo[2,3-c]pyridin-7-yl)-1H-pyrazole-5-carboxamide]	0.17
COc1cnc(-n2cnc(C)n2)c2[nH]cc(C(=O)C(=O)N3CCc4c(cccc4-c4ccccc4)C3)c12 [Compound 1, 1-(4-methoxy-7-(3-methyl-1H-1,2,4-triazol-1-yl)-1H-pyrrolo[2,3-c]pyridin-3-yl)-2-(5-phenyl-3,4-dihydroisoquinolin-2(1H)-yl)ethane-1,2-dione]	0.02

Same assay, conditions: Human immunodeficiency virus 1, HeLa, 72 h, read-out: HIV_SC10PT (EC50, nM), group symbol

Structure (SMILES)	EC50 [nM]
COc1cnc(-n2cnc(C)n2)c2[nH]cc(C(=O)C(=O)N3CCc4c(ccnc4-c4ccccc4)C3)c12 [Compound 27, 1-(4-methoxy-7-(3-methyl-1H-1,2,4-triazol-1-yl)-1H-pyrrolo[2,3-c]pyridin-3-yl)-2-(5-phenyl-3,4-dihydro-2,6-naphthyridin-2(1H)-yl)ethane-1,2-dione]	< 100
COc1cnc(-n2ccc(C(F)(F)F)n2)c2[nH]cc(C(=O)C(=O)N3CCc4c(cccc4-c4ccccn4)C3)c12 [Compound 10, 1-(4-methoxy-7-(3-(trifluoromethyl)-1H-pyrazol-1-yl)-1H-pyrrolo[2,3-c]pyridin-3-yl)-2-(5-(pyridin-2-yl)-3,4-dihydroisoquinolin-2(1H)-yl)ethane-1,2-dione]	< 100
COc1cnc(-n2cnc(C(F)(F)F)n2)c2[nH]cc(C(=O)C(=O)N3CCc4c(cccc4-c4ccccn4)C3)c12 [Compound 12, 1-(4-methoxy-7-(3-(trifluoromethyl)-1H-1,2,4-triazol-1-yl)-1H-pyrrolo[2,3-c]pyridin-3-yl)-2-(5-(pyridin-2-yl)-3,4-dihydroisoquinolin-2(1H)-yl)ethane-1,2-dione]	< 100
COc1cnc(-n2cncn2)c2[nH]cc(C(=O)C(=O)N3CCc4c(cccc4-c4ccccn4)C3)c12 [Compound 11, 1-(4-methoxy-7-(1H-1,2,4-triazol-1-yl)-1H-pyrrolo[2,3-c]pyridin-3-yl)-2-(5-(pyridin-2-yl)-3,4-dihydroisoquinolin-2(1H)-yl)ethane-1,2-dione]	< 100
COc1cnc(C(=O)NCCO)c2[nH]cc(C(=O)C(=O)N3CCc4c(cccc4-c4ccccn4)C3)c12 [Compound 6, N-(2-hydroxyethyl)-4-methoxy-3-(2-oxo-2-(5-(pyridin-2-yl)-3,4-dihydroisoquinolin-2(1H)-yl)acetyl)-1H-pyrrolo[2,3-c]pyridine-7-carboxamide]	< 100
COCc1ncn(-c2ncc(OC)c3c(C(=O)C(=O)N4CCc5c(cccc5-c5ccccn5)C4)c[nH]c23)n1 [Compound 14, 1-(4-methoxy-7-(3-(methoxymethyl)-1H-1,2,4-triazol-1-yl)-1H-pyrrolo[2,3-c]pyridin-3-yl)-2-(5-(pyridin-2-yl)-3,4-dihydroisoquinolin-2(1H)-yl)ethane-1,2-dione]	< 100
COCc1ncnn1-c1ncc(OC)c2c(C(=O)C(=O)N3CCc4c(cccc4-c4ccccn4)C3)c[nH]c12 [Compound 13, 1-(4-methoxy-7-(5-(methoxymethyl)-1H-1,2,4-triazol-1-yl)-1H-pyrrolo[2,3-c]pyridin-3-yl)-2-(5-(pyridin-2-yl)-3,4-dihydroisoquinolin-2(1H)-yl)ethane-1,2-dione]	< 100
COc1cnc(-n2cnc(CO)n2)c2[nH]cc(C(=O)C(=O)N3CCc4c(ncnc4-c4ccccn4)C3)c12 [Compound 23, 1-(7-(3-(hydroxymethyl)-1H-1,2,4-triazol-1-yl)-4-methoxy-1H-pyrrolo[2,3-c]pyridin-3-yl)-2-(4-(pyridin-2-yl)-5,6-dihydropyrido[3,4-d]pyrimidin-7(8H)-yl)ethane-1,2-dione]	< 100
COc1cnc(-c2cc(C(=O)O)[nH]n2)c2[nH]cc(C(=O)C(=O)N3CCc4c(cccc4-c4ccccn4)C3)c12 [Compound 7, 3-(4-methoxy-3-(2-oxo-2-(5-(pyridin-2-yl)-3,4-dihydroisoquinolin-2(1H)-yl)acetyl)-1H-pyrrolo[2,3-c]pyridin-7-yl)-1H-pyrazole-5-carboxylic acid]	< 100
COc1cnc(-n2ccnn2)c2[nH]cc(C(=O)C(=O)N3CCc4c(ncnc4-c4ccccn4)C3)c12 [Compound 19, 1-(4-methoxy-7-(1H-1,2,3-triazol-1-yl)-1H-pyrrolo[2,3-c]pyridin-3-yl)-2-(4-(pyridin-2-yl)-5,6-dihydropyrido[3,4-d]pyrimidin-7(8H)-yl)ethane-1,2-dione]	< 100
COc1cnc(-n2cnc(C)n2)c2[nH]cc(C(=O)C(=O)N3CCc4c(-c5ccccn5)cccc4C3O)c12 (stereo not shown) [Compound 28, 1-(1-hydroxy-5-(pyridin-2-yl)-3,4-dihydroisoquinolin-2(1H)-yl)-2-(4-methoxy-7-(3-methyl-1H-1,2,4-triazol-1-yl)-1H-pyrrolo[2,3-c]pyridin-3-yl)ethane-1,2-dione]	< 100
COc1cnc(-c2cc(CO)[nH]n2)c2[nH]cc(C(=O)C(=O)N3CCc4c(ncnc4-c4ccccn4)C3)c12 [Compound 21, 1-(7-(5-(hydroxymethyl)-1H-pyrazol-3-yl)-4-methoxy-1H-pyrrolo[2,3-c]pyridin-3-yl)-2-(4-(pyridin-2-yl)-5,6-dihydropyrido[3,4-d]pyrimidin-7(8H)-yl)ethane-1,2-dione]	< 100
COc1cnc(-n2cnc(C)n2)c2[nH]cc(C(=O)C(=O)N3CCc4c(ccnc4-c4ccccn4)C3)c12 [Compound 26, 1-(4-methoxy-7-(3-methyl-1H-1,2,4-triazol-1-yl)-1H-pyrrolo[2,3-c]pyridin-3-yl)-2-(5-(pyridin-2-yl)-3,4-dihydro-2,6-naphthyridin-2(1H)-yl)ethane-1,2-dione]	< 100
COc1cnc(-n2cnc(C(C)(F)F)n2)c2[nH]cc(C(=O)C(=O)N3CCc4c(cccc4-c4ccccn4)C3)c12 [Compound 17, 1-(7-(3-(1,1-difluoroethyl)-1H-1,2,4-triazol-1-yl)-4-methoxy-1H-pyrrolo[2,3-c]pyridin-3-yl)-2-(5-(pyridin-2-yl)-3,4-dihydroisoquinolin-2(1H)-yl)ethane-1,2-dione]	< 100
COc1cnc(-c2cc(C(=O)N(C)C)[nH]n2)c2[nH]cc(C(=O)C(=O)N3CCc4c(cccc4-c4ccccn4)C3)c12 [Compound 8, 3-(4-methoxy-3-(2-oxo-2-(5-(pyridin-2-yl)-3,4-dihydroisoquinolin-2(1H)-yl)acetyl)-1H-pyrrolo[2,3-c]pyridin-7-yl)-N,N-dimethyl-1H-pyrazole-5-carboxamide]	< 100
CNC(=O)c1ncc(OC)c2c(C(=O)C(=O)N3CCc4c(cccc4-c4ccccn4)C3)c[nH]c12 [Compound 5, 4-methoxy-N-methyl-3-(2-oxo-2-(5-(pyridin-2-yl)-3,4-dihydroisoquinolin-2(1H)-yl)acetyl)-1H-pyrrolo[2,3-c]pyridine-7-carboxamide]	< 100
COc1cnc(-c2cc(C(C)(C)O)[nH]n2)c2[nH]cc(C(=O)C(=O)N3CCc4c(ncnc4-c4ccccn4)C3)c12 [Compound 22, 1-(7-(5-(2-hydroxypropan-2-yl)-1H-pyrazol-3-yl)-4-methoxy-1H-pyrrolo[2,3-c]pyridin-3-yl)-2-(4-(pyridin-2-yl)-5,6-dihydropyrido[3,4-d]pyrimidin-7(8H)-yl)ethane-1,2-dione]	< 100
COc1cnc(-n2cnc(C(C)O)n2)c2[nH]cc(C(=O)C(=O)N3CCc4c(ncnc4-c4ccccn4)C3)c12 (stereo not shown) [Compound 24, 1-(7-(3-(1-hydroxyethyl)-1H-1,2,4-triazol-1-yl)-4-methoxy-1H-pyrrolo[2,3-c]pyridin-3-yl)-2-(4-(pyridin-2-yl)-5,6-dihydropyrido[3,4-d]pyrimidin-7(8H)-yl)ethane-1,2-dione]	< 100
COc1cnc(-n2cnc(C)n2)c2[nH]cc(C(=O)C(=O)N3CCc4c(cc(C#N)c(=O)n4-c4ccccc4)C3)c12 [Compound 25, 6-(2-(4-methoxy-7-(3-methyl-1H-1,2,4-triazol-1-yl)-1H-pyrrolo[2,3-c]pyridin-3-yl)-2-oxoacetyl)-2-oxo-1-phenyl-1,2,5,6,7,8-hexahydro-1,6-naphthyridine-3-carbonitrile]	< 100
COc1cnc(-n2cnc(C)n2)c2[nH]cc(C(=O)C(=O)N3CCc4c(cccc4-c4ccccn4)C3)c12 [Compound 2, 1-(4-methoxy-7-(3-methyl-1H-1,2,4-triazol-1-yl)-1H-pyrrolo[2,3-c]pyridin-3-yl)-2-(5-(pyridin-2-yl)-3,4-dihydroisoquinolin-2(1H)-yl)ethane-1,2-dione]	< 100
COc1cnc(-c2cc(CO)[nH]n2)c2[nH]cc(C(=O)C(=O)N3CCc4c(cccc4-c4ccccn4)C3)c12 [Compound 29, 1-(7-(5-(hydroxymethyl)-1H-pyrazol-3-yl)-4-methoxy-1H-pyrrolo[2,3-c]pyridin-3-yl)-2-(5-(pyridin-2-yl)-3,4-dihydroisoquinolin-2(1H)-yl)ethane-1,2-dione]	< 100
CNC(=O)c1cc(-c2ncc(OC)c3c(C(=O)C(=O)N4CCc5c(cccc5-c5ccccn5)C4)c[nH]c23)n[nH]1 [Compound 4, 3-(4-methoxy-3-(2-oxo-2-(5-(pyridin-2-yl)-3,4-dihydroisoquinolin-2(1H)-yl)acetyl)-1H-pyrrolo[2,3-c]pyridin-7-yl)-N-methyl-1H-pyrazole-5-carboxamide]	< 100
